4 substances from article PMC3447791, “High Mannose-Binding Antiviral Lectin PFL from Pseudomonas fluorescens Pf0-1 Promotes Cell Death of Gastric Cancer Cell MKN28 via Interaction with α2-Integrin” (PLoS ONE, 2012) can be followed below.

Assay [1] has as its target T1, PFL (Pseudomonas fluorescens, UniProt Q3KJ04).
T1 construct: gene Pfl01_0508; full length, 132 residues, two homologous domains; pET101/D-TOPO with native stop codon, E. coli BL21 Star (DE3); Alexa Fluor 488 labelled for the array
T1 sequence (Q3KJ04 2-133): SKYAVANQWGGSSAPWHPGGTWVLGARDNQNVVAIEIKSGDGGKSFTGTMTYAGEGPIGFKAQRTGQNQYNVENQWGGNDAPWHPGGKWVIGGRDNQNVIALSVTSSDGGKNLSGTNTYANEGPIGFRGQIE
Briefly: CFG printed glycan microarray v5.[…], fluorescence. The settings on record: 10 μg/ml Alexa488-PFL; glycan immobilised on array. In kind it is binding.

In assay [2] the target is T1, PFL. Briefly: CFG printed glycan microarray v5.[…], fluorescence. In kind it is binding. The settings on record: 10 μg/ml Alexa488-PFL; glycan immobilised on array. This is another data set of the same source.

Regarding “fucosylated counterpart of pentasaccharide core of N-glycan (50) [compound 485]”, on PFL [1], the RFU is reported as 746 RFU.

Substance M6 glycan [compound 216] came in with an RFU on PFL [1] of 43471 RFU. M7 glycan [compound 211]: on PFL [2], the “binding potency relative to M6 glycan (216)” value was ~ 53%. For M8 glycan [compound 212], the RFU at PFL [1] is given as 40759 RFU.
